A word on the IC50: it is the point on the concentration scale where inhibition reaches its midpoint.

Molecules are shown by their SMILES.

The target in test [1] is T1, Kinesin-like protein KIF11 (Homo sapiens, UniProt P52732).
T1 sequence (P52732 whole entry): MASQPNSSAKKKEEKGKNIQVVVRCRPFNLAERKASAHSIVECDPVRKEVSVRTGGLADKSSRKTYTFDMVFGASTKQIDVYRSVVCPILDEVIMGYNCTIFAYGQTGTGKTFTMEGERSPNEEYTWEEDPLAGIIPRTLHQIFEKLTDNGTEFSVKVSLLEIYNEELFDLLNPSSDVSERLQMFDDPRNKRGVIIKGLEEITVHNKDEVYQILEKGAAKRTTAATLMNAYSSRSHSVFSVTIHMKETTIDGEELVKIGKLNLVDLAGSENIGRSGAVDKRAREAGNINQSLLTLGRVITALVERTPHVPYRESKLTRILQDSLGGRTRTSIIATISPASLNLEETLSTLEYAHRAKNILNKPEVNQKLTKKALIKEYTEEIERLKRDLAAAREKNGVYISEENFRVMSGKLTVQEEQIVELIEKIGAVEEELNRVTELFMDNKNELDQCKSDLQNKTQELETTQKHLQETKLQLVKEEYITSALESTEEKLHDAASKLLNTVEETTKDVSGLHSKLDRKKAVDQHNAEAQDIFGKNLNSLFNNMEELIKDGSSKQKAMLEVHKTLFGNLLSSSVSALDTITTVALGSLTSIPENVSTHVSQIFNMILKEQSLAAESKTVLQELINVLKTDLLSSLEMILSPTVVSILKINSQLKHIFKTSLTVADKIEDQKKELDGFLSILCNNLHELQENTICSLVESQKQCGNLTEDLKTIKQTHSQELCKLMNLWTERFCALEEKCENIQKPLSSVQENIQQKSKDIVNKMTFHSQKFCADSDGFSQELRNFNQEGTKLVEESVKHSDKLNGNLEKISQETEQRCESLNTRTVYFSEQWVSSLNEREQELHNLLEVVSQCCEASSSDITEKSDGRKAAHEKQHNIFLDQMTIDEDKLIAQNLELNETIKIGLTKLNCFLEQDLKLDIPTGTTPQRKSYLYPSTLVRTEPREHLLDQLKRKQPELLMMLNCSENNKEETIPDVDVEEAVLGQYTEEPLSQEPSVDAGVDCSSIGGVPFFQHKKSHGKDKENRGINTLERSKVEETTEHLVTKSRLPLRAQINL
The test is described as follows: Inhibition of human recombinant C-terminal His6-tagged KSP ATPase activity after 1 hr by malachite green assay.

The next test relates to COLO 205. The test is described as follows: Anticancer activity against human COLO205 cells after 72 hrs by MTS/PMS assay. The format is functional, cell-based. Particulars: Homo sapiens, COLO 205, 72 h.

Turning to `CCC(c1nc2ccsc2c(=O)[nH]1)N(CCCN)C(=O)c1ccc(C)cc1` (configuration not stated), the IC50 in test [1] is 9 µM. As for `CCC(c1nc2ccsc2c(=O)n1Cc1ccccc1)N(CCCN)C(=O)c1ccc(OC)cc1` (configuration not stated), the IC50 in the test on COLO 205 stood at 0.64 µM; in test [1] it was 0.21 µM. The matching figures for `CCC(c1nc2ncccc2c(=O)n1Cc1ccccc1)N(CCCN)C(=O)c1ccc(C)cc1` (configuration not stated): 1.4 µM and 0.323 µM.

`CCC(c1nc2snc(C)c2c(=O)n1Cc1ccccc1)N(CCCN)C(=O)c1ccc(Br)cc1` (configuration not stated) came in with an IC50 with COLO 205 of 0.014 µM. Turning to `CCC(c1nc2ccsc2c(=O)n1Cc1ccc(C)cc1)N(CCCN)C(=O)c1ccc(C)cc1` (configuration not stated), the IC50 with COLO 205 turned out to be 0.65 µM; in test [1] it was 0.13 µM. On to `CCC(c1nc2ccn(C)c2c(=O)n1Cc1ccccc1)N(CCCN)C(=O)c1ccc(C)cc1` (configuration not stated), for which the IC50 amounted to 0.043 µM in the test on COLO 205 and 0.021 µM in test [1]. Regarding `CCC(c1nc2ccsc2c(=O)n1Cc1ccccn1)N(CCCN)C(=O)c1ccc(C)cc1` (configuration not stated), the IC50 in test [1] came out at 3.5 µM.

For `CCC(c1nc2snc(C)c2c(=O)n1Cc1ccccc1)N(CCCN)C(=O)c1ccc(C)cc1` (single isomer, unassigned; (-)), the IC50 in test [1] came out at 0.051 µM. Take `CCC(c1nc2ccsc2c(=O)n1Cc1ccccc1)N(CCCN)C(=O)c1cc2ccccc2s1` (configuration not stated): the IC50 in test [1] is 0.04 µM. In the test with COLO 205, `Cc1nsc2nc(C(C(C)C)N(CCCN)C(=O)c3ccc(Br)cc3)n(Cc3ccccc3)c(=O)c12` (configuration not stated) yielded an IC50 of 0.006 µM. On to `CCC(c1nc2ccsc2c(=O)n1Cc1ccccc1)N(CCCN)C(=O)c1ccc(Cl)cc1` (configuration not stated), for which the figures for the IC50 (with COLO 205; in test [1]) were 0.2 µM and 0.05 µM, respectively. Consider `CCC(c1nc2ccsc2c(=O)n1Cc1ccc(OC)cc1)N(CCCN)C(=O)c1ccc(C)cc1` (configuration not stated), for which the IC50 in the test with COLO 205 amounted to 0.79 µM; in test [1] it was 0.16 µM. Regarding `CCC(c1nc2snc(C)c2c(=O)n1Cc1cccc(F)c1)N(CCCN)C(=O)c1ccc(C)cc1` (single isomer, unassigned; (+)), the 50% inhibitory concentration (IC50) in the test on COLO 205 amounted to 0.013 µM. As for `CCC(c1nc2ccsc2c(=O)n1Cc1ccccc1)N(CCCN)C(=O)c1ccc(C)cc1` (configuration not stated), the IC50 came out at 0.1 µM in the test with COLO 205 and 0.01 µM in test [1]. For `CCC(c1nc2ccsc2c(=O)n1Cc1ccccc1)N(CCCN)C(=O)c1ccccc1` (configuration not stated) the same measures were 0.68 µM and 0.2 µM. Take `CCC(c1nc2ccsc2c(=O)n1Cc1cccnc1)N(CCCN)C(=O)c1ccc(C)cc1` (configuration not stated): the IC50 in test [1] was 3.8 µM. `CCC(c1nc2ccsc2c(=O)n1CC1CC1)N(CCCN)C(=O)c1ccc(C)cc1` (configuration not stated): the figures for the IC50 (with COLO 205; in test [1]) were 3.08 µM and 0.76 µM, respectively.

In the case of `CCC(c1nc2ccsc2c(=O)n1Cc1ccccc1)N(CCCN)C(=O)c1ccc(Br)cc1` (configuration not stated), the IC50 with COLO 205 was 0.16 µM; in test [1], 0.03 µM. For `CCC(c1nc2ccsc2c(=O)n1Cc1ccccc1)N(CCCN)C(=O)c1ccccc1Cl` (configuration not stated) the same measures were 0.86 µM and 0.61 µM. Turning to `CCCCC(=O)N(CCCN)C(CC)c1nc2ccsc2c(=O)n1Cc1ccccc1` (configuration not stated), in test [1], the IC50 turned out to be 5.52 µM. With `CCC(c1nc2sc(Cl)c(Br)c2c(=O)n1Cc1ccccc1)N(CCCN)C(=O)c1ccc(C)cc1` (configuration not stated), the IC50 in the test with COLO 205 is 0.675 µM; in test [1], 0.161 µM. As to `CCC(c1nc2ccsc2c(=O)n1Cc1ccccc1)N(CCCN)C(=O)c1ccc2nccnc2c1` (configuration not stated), the IC50 in test [1] worked out at 3.21 µM. Consider `CCC(c1nc2ccsc2c(=O)n1Cc1ccccc1)N(CCCN)C(=O)c1ccc(Cl)cc1Cl` (configuration not stated), for which the IC50 stood at 0.31 µM in the test on COLO 205 and 0.15 µM in test [1].

For the compound `CCC(c1nc2ccsc2c(=O)n1Cc1cc(C)on1)N(CCCN)C(=O)c1ccc(C)cc1` (configuration not stated), the IC50 turned out to be 1.71 µM in the test with COLO 205 and 0.63 µM in test [1]. Compound `Cc1ccc(C(=O)N(CCCN)C(c2nc3snc(C)c3c(=O)n2Cc2ccc(F)cc2)C(C)C)cc1` (configuration not stated) displayed an IC50 in the test with COLO 205 of 0.019 µM. With `CCc1ccc(C(=O)N(CCCN)C(CC)c2nc3ccsc3c(=O)n2Cc2ccccc2)cc1` (configuration not stated), the values for the IC50 (in the test with COLO 205; in test [1]) were 0.25 µM and 0.09 µM, respectively. `CCC(c1nc2ccsc2c(=O)n1Cc1ccccc1)N(CCCN)C(=O)c1ccc2c(c1)OCO2` (configuration not stated): the IC50 with COLO 205 came to 0.26 µM; in test [1] it was 0.15 µM. Take `CCC(c1nc2ccsc2c(=O)n1Cc1ccccc1)N(CCCN)C(=O)C1CCCC1` (configuration not stated): the IC50 in test [1] amounted to 4.22 µM.

As for `CCC(c1nc2ccsc2c(=O)n1Cc1ccccc1)N(C(=O)c1ccc(C)cc1)C1CCNCC1` (configuration not stated), the IC50 in the test with COLO 205 was 1.29 µM; in test [1], 1.07 µM.

On to `CCC(c1nc2ccsc2c(=O)n1Cc1ccccc1)N(CCCN)C(=O)c1cccc(C)c1` (configuration not stated), for which the results for the IC50 (in the test with COLO 205; in test [1]) were 0.14 µM and 0.09 µM, respectively. Regarding `CCC(c1nc2ccsc2c(=O)n1Cc1ccccc1)N(CCCNS(C)(=O)=O)C(=O)c1ccc(C)cc1` (configuration not stated), the IC50 in test [1] was 5.99 µM. In the test on COLO 205, `Cc1ccc(C(=O)N(CCCN)C(c2nc3snc(C)c3c(=O)n2Cc2cccc(F)c2)C(C)C)cc1` (single isomer, unassigned; (+)) yielded an IC50 of 0.005 µM. Take `CCC(c1nc2ccsc2c(=O)n1Cc1ccccc1)N(CCCN)C(=O)c1ccc(C)nc1` (configuration not stated): the IC50 with COLO 205 is 3.69 µM; in test [1], 0.98 µM. The matching figures for `CCC(c1nc2ccsc2c(=O)n1Cc1ccccc1)N(CCCN)C(=O)c1ccc(C(F)(F)F)cc1` (configuration not stated): 0.51 µM and 0.21 µM. The matching figures for `CCC(c1nc2ccsc2c(=O)n1Cc1ccccc1)N(CC1CCNCC1)C(=O)c1ccc(C)cc1` (configuration not stated): 10 µM and 1.44 µM. The matching figures for `CCC(c1nc2sc(Br)cc2c(=O)n1Cc1ccccc1)N(CCCN)C(=O)c1ccc(C)cc1` (configuration not stated): 0.763 µM and 0.141 µM. Take `CCC(c1nc2ccsc2c(=O)n1Cc1ccccc1)N(CCCN)C(=O)C1CCC(OC)CC1` (configuration not stated): the concentration for half-maximal inhibition (IC50) in test [1] worked out at 9 µM. On the same count and under the same terms, the figure for `CCC(c1nc2ccsc2c(=O)n1Cc1ccccc1)N(CCCN)C(=O)c1ccc(C(=O)OC)cc1` (configuration not stated) is 5.96 µM. Turning to `CCC(c1nc2ccoc2c(=O)n1Cc1ccccc1)N(CCCN)C(=O)c1ccc(C)cc1` (configuration not stated), the IC50 in the test on COLO 205 is 0.174 µM; in test [1], 0.013 µM. `CCC(c1nc2ccsc2c(=O)n1Cc1ccccc1)N(CCCN)C(=O)C1CC1` (configuration not stated): the IC50 in test [1] came out at 6.7 µM. `CCC(c1nc2snc(C)c2c(=O)n1Cc1ccccc1)N(CCCN)C(=O)c1ccc(C)c(F)c1` (configuration not stated): inhibition with COLO 205 was half-maximal at 0.012 µM (IC50). For the compound `CCC(c1nc2ccsc2c(=O)n1Cc1ccccc1)N(CCCN)C(=O)c1ccc(OC(F)(F)F)cc1` (configuration not stated), the IC50 in test [1] is 2.46 µM. Same read-out and setting: the figure for `CCC(c1nc2ccsc2c(=O)n1Cc1ccccc1)N(CCCN)C(=O)C1COc2ccccc2O1` (configuration not stated) is 2.31 µM. As to `Cc1ccc(C(=O)N(CCCN)C(c2nc3snc(C)c3c(=O)n2Cc2ccccc2)C(C)C)cc1` (stereo in doubt; 65) [AZD-4877], half-maximal inhibition in the test with COLO 205 (IC50) required 0.002 µM. For `CCC(c1nc2ccsc2c(=O)n1Cc1ccncc1)N(CCCN)C(=O)c1ccc(C)cc1` (configuration not stated), the half-maximal inhibitory concentration (IC50) in test [1] worked out at 5.31 µM. The same measure, in the same setting: the figure for `CCC(c1nc2ccsc2c(=O)n1Cc1ccccc1)N(CCCNC(C)=O)C(=O)c1ccc(C)cc1` (configuration not stated) is 2.92 µM. Still for that read-out and setting: to `CCC(c1nc2ccsc2c(=O)n1Cc1ccccc1)N(CCCN)C(=O)c1sccc1C` (configuration not stated) belongs 0.41 µM. On the same count and under the same terms, the figure for `CCC(c1nc2ccsc2c(=O)n1Cc1ccccc1)N(CCCN)C(=O)c1ccno1` (configuration not stated) is 1.39 µM; for `CCC(c1nc2ccsc2c(=O)n1Cc1ccccc1)N(CCCNC(=O)OC(C)(C)C)C(=O)c1ccc(C)cc1` (configuration not stated) it is 10 µM; for `Cc1ccc(C(=O)N(CCCN)C(c2nc3snc(C)c3c(=O)n2Cc2ccccc2)C(C)C)cc1` (single isomer, unassigned; (-)) [AZD-4877] it is 0.429 µM. Consider `Cc1ccc(C(=O)N(CCCN)C(c2nc3snc(C)c3c(=O)n2Cc2ccccc2)C(C)C)cc1F` (single isomer, unassigned; (+)), for which, in the test with COLO 205, the IC50 turned out to be 0.01 µM. For the compound `CCC(c1nc2sccc2c(=O)n1Cc1ccccc1)N(CCCN)C(=O)c1ccc(C)cc1` (single isomer, unassigned; (-)), the IC50 in test [1] was 1.9 µM.

With `CCC(c1nc2ccsc2c(=O)n1Cc1ccccc1)N(CCCN)C(=O)c1ccc(C#N)cc1` (configuration not stated), in test [1], the IC50 came out at 2.7 µM. The same measure, in the same setting: to `CCC(c1nc2nccnc2c(=O)n1Cc1ccccc1)N(CCCN)C(=O)c1ccc(C)cc1` (configuration not stated) belongs 5.46 µM; to `CCC(NC(=O)c1ccc(C)cc1)c1nc2ccsc2c(=O)n1Cc1ccccc1` (configuration not stated), 9 µM.

`CCC(c1nc2snc(C)c2c(=O)n1Cc1ccc(F)cc1)N(CCCN)C(=O)c1ccc(C)cc1` (configuration not stated) returned an IC50 in the test with COLO 205 of 0.105 µM. As to `CCC(c1nc2ccsc2c(=O)n1Cc1cscn1)N(CCCN)C(=O)c1ccc(C)cc1` (configuration not stated), the IC50 in test [1] was found to be 9.09 µM.

In the case of `CCC(c1nc2ccsc2c(=O)n1Cc1ccccc1)N(CCCN)C(=O)CC(C)C` (configuration not stated), in test [1], the IC50 was determined as 4.54 µM.

With `CCC(c1nc2ccsc2c(=O)n1Cc1ccccc1)N(CCCN)C(=O)c1ccccc1C` (configuration not stated), the IC50 in test [1] is 1.06 µM.

These data come from ChEMBL document CHEMBL1828558, “Discovery of (+)-N-(3-aminopropyl)-N-[1-(5-benzyl-3-methyl-4-oxo-[1,2]thiazolo[5,4-d]pyrimidin-6-yl)-2-methylpropyl]-4-methylbenzamide (AZD4877), a kinesin spindle protein inhibitor and potential anticancer agent” (J Med Chem, 2011).
